Common to all, as to assay: Z'-LYTE kinase panel
What all share (format): biochemical

One test deals with T1, INSRR (IRR) (Homo sapiens, UniProt P14616).
T1 construct: purchased ThermoFisher (SelectScreen, Z'-LYTE)
How it is done: (§1) Compounds 2, 3 and 5 were tested for activity against the 225 kinases in the ThermoFisher standard kinase panel. The standard Z′-LYTE assay protocol (ThermoFisher) was used to measure the percentage inhibition at 10 µM compound concentration (details are provided in the supporting information).

The next test addresses T2, EGFR (ErbB1) (Homo sapiens, UniProt P00533).
T2 construct: purchased ThermoFisher (SelectScreen, Z'-LYTE)
How it is done: as §1

A further test addresses T3, STK3 (MST2) (Homo sapiens, UniProt Q13188).
T3 construct: purchased ThermoFisher (SelectScreen, Z'-LYTE)
T3 sequence (Q13188 1-491): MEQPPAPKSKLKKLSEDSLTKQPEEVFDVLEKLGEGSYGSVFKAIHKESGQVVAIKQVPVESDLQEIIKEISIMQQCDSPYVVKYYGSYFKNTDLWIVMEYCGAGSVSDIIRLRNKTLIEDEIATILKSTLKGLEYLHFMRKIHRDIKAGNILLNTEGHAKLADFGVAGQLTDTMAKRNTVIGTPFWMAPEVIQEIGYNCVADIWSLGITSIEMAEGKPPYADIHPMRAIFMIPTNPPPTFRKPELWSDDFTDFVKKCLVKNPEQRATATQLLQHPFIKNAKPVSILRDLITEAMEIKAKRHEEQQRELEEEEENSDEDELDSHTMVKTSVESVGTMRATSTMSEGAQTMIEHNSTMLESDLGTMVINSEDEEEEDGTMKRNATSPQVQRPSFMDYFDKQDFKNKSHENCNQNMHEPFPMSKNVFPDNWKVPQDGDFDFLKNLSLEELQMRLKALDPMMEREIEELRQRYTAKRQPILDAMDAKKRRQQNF
How it is done: as §1

The next test concerns the target T4, PRKCD (PKC delta) (Homo sapiens, UniProt Q05655).
T4 construct: purchased ThermoFisher (SelectScreen, Z'-LYTE)
How it is done:
as §1

The target in the next test is T5, INSR (Homo sapiens, UniProt P06213).
T5 construct: purchased ThermoFisher (SelectScreen, Z'-LYTE)
How it is done:
as §1

The target of the next test is T6, IKBKE (IKK epsilon) (Homo sapiens, UniProt Q14164).
T6 construct: purchased ThermoFisher (SelectScreen, Z'-LYTE)
T6 sequence (Q14164 1-716): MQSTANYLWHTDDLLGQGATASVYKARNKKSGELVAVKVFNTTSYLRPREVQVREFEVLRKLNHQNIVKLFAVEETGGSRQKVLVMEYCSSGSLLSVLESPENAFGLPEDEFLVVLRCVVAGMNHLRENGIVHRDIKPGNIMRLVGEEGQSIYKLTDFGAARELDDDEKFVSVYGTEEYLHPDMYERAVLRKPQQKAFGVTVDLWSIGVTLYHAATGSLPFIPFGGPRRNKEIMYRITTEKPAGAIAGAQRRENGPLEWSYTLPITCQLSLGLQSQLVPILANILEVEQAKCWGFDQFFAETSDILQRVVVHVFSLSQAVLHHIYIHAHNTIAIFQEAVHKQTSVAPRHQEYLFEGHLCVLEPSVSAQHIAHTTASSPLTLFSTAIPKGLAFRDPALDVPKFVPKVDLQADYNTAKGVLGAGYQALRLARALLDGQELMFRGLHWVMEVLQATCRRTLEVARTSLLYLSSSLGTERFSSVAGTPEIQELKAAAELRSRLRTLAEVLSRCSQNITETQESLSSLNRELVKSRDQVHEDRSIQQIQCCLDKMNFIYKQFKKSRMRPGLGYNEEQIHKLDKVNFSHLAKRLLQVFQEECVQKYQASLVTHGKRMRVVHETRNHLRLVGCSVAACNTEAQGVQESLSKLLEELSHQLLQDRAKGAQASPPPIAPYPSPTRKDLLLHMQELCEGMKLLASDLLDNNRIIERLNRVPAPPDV
How it is done: as §1

In another test the target is T7, CSNK1A1 (CK1 alpha 1) (Homo sapiens, UniProt P48729).
T7 construct: purchased ThermoFisher (SelectScreen, Z'-LYTE)
T7 sequence (P48729 whole entry): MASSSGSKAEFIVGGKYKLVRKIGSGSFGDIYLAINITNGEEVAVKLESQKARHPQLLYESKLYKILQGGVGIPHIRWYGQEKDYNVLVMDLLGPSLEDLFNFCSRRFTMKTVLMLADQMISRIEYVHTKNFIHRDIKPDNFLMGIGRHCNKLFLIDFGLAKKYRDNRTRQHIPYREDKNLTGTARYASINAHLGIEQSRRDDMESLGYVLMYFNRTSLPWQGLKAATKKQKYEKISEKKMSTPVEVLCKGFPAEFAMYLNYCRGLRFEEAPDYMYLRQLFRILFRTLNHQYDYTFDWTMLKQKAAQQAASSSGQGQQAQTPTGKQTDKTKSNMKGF
How it is done:
as §1

The target of the next test is T8, RPS6KA6 (RSK4) (Homo sapiens, UniProt Q9UK32).
T8 construct: purchased ThermoFisher (SelectScreen, Z'-LYTE)
T8 sequence (Q9UK32 whole entry): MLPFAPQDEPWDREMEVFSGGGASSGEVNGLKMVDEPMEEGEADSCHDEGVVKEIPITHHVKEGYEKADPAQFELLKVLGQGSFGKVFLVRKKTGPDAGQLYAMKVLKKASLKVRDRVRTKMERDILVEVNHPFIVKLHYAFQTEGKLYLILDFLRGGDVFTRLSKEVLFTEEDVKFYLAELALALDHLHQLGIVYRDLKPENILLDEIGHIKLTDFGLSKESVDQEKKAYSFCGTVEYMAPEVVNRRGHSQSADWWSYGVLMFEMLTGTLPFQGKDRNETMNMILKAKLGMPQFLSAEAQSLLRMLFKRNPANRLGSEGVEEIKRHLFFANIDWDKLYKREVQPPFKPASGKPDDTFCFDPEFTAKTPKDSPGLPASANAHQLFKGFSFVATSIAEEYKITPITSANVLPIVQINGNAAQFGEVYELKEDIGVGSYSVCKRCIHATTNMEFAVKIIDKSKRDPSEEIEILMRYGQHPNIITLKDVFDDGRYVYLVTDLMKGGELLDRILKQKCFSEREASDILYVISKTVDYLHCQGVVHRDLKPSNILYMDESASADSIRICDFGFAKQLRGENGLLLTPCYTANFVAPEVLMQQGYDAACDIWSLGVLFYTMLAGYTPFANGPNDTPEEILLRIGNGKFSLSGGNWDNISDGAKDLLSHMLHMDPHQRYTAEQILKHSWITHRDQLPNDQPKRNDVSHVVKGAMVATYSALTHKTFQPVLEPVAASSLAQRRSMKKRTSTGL
How it is done:
as §1

The next test concerns the target T9, LCK (Homo sapiens, UniProt P06239).
T9 construct: purchased ThermoFisher (SelectScreen, Z'-LYTE)
How it is done:
as §1

The target of a further test is T10, PHKG1 (Homo sapiens, UniProt Q16816).
T10 construct: purchased ThermoFisher (SelectScreen, Z'-LYTE)
How it is done:
as §1

In the next test the target is T11, MAPKAPK2 (Homo sapiens, UniProt P49137).
T11 construct: purchased ThermoFisher (SelectScreen, Z'-LYTE)
How it is done: as §1

The target of a further test is T12, PTK2 (FAK) (Homo sapiens, UniProt Q05397).
T12 construct: purchased ThermoFisher (SelectScreen, Z'-LYTE)
T12 sequence (Q05397 whole entry): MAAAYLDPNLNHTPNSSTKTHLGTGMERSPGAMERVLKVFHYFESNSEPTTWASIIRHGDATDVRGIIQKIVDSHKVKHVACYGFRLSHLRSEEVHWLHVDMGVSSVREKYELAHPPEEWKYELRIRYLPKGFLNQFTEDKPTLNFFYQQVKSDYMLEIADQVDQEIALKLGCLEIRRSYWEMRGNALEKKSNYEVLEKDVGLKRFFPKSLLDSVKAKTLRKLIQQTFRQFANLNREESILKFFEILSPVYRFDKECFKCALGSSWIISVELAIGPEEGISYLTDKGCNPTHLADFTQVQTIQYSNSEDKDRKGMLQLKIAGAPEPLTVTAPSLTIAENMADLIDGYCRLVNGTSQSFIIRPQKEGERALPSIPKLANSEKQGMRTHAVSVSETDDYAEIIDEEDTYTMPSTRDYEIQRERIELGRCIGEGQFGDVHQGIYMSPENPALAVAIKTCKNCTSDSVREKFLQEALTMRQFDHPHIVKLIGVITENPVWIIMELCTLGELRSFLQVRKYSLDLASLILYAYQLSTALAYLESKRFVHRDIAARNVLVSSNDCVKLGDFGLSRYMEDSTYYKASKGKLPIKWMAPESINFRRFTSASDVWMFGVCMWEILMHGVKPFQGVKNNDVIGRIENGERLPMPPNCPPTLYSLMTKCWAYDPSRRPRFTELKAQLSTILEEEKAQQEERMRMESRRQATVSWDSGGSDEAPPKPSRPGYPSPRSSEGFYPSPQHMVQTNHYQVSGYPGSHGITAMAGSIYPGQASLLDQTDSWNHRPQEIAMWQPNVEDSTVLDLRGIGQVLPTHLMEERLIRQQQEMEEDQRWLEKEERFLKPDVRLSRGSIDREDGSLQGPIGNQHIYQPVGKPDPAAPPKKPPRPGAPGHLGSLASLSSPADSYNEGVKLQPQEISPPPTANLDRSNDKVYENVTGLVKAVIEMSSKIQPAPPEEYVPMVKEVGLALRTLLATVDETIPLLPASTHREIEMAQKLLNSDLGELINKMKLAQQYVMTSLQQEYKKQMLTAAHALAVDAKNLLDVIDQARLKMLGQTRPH
How it is done: as §1

The next test addresses T13, RPS6KA1 (RSK1) (Homo sapiens, UniProt Q15418).
T13 construct: purchased ThermoFisher (SelectScreen, Z'-LYTE)
How it is done:
as §1

Another test addresses T14, ADRBK2 (GRK3) (Homo sapiens, UniProt P35626).
T14 construct: purchased ThermoFisher (SelectScreen, Z'-LYTE)
T14 sequence (P35626 1-688): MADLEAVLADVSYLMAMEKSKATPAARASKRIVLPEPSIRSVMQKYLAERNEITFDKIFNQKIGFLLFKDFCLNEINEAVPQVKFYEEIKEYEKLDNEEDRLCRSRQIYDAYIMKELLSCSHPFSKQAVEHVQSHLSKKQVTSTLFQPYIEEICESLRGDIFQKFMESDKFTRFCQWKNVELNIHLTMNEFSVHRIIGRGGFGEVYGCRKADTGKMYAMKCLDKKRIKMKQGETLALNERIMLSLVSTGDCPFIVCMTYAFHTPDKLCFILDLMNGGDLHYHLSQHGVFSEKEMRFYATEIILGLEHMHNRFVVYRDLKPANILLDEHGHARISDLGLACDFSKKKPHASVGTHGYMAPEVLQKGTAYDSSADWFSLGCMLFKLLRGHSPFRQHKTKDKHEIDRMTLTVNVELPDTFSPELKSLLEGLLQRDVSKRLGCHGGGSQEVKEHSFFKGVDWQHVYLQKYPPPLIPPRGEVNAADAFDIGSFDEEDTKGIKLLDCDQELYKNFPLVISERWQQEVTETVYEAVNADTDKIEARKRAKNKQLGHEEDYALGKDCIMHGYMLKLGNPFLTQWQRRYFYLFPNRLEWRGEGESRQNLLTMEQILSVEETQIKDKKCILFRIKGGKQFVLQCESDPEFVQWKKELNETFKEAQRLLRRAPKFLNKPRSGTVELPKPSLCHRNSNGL
How it is done: as §1

T4 sequence (Q05655 whole entry): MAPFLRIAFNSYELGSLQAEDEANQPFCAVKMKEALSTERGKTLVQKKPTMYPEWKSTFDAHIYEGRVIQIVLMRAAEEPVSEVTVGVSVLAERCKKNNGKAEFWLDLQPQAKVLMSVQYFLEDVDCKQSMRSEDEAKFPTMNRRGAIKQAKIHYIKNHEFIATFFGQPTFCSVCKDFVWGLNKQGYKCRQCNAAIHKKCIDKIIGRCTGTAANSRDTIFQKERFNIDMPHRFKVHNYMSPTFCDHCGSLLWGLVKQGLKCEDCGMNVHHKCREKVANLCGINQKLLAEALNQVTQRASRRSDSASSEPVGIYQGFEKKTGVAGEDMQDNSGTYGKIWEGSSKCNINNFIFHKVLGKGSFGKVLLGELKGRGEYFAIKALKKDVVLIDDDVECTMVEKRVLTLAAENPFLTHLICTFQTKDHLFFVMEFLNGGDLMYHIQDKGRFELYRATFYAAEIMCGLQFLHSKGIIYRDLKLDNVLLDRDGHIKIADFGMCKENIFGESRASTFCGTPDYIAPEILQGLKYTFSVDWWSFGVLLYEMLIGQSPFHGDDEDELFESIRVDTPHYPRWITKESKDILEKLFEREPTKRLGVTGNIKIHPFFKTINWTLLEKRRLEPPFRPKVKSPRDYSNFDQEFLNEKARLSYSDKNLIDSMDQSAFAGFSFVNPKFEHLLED
T1 sequence (P14616 27-1297): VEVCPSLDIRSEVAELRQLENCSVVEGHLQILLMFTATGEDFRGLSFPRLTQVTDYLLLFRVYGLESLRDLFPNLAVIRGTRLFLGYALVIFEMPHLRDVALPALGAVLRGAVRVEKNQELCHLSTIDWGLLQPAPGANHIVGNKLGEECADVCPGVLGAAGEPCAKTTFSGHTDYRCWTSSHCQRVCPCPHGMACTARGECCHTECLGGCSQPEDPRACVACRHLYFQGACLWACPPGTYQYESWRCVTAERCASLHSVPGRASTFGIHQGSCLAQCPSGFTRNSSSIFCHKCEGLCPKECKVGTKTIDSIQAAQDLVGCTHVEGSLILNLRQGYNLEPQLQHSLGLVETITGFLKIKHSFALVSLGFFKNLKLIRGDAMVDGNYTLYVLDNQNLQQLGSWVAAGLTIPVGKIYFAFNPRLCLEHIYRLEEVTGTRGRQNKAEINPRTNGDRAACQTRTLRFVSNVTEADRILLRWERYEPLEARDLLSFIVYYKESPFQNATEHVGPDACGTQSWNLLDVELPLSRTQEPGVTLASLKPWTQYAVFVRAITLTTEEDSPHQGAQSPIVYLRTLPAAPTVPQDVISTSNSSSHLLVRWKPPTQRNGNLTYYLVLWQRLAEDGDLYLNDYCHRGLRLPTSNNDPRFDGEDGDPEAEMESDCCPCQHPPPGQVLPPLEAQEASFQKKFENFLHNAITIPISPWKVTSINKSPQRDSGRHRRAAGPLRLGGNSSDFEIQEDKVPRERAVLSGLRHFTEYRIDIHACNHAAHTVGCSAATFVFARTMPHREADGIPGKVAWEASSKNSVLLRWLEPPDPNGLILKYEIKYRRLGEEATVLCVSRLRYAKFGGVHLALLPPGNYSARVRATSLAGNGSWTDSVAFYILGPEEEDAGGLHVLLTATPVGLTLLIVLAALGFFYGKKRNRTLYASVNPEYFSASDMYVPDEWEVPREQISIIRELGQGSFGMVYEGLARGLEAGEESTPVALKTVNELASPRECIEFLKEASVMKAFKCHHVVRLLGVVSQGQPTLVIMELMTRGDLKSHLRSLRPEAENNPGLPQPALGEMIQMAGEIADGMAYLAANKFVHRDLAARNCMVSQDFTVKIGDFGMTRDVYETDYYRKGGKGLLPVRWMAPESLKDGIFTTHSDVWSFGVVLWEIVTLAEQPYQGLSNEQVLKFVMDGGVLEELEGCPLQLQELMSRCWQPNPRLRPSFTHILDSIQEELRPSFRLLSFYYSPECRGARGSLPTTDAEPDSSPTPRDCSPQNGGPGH
T13 sequence (Q15418 whole entry): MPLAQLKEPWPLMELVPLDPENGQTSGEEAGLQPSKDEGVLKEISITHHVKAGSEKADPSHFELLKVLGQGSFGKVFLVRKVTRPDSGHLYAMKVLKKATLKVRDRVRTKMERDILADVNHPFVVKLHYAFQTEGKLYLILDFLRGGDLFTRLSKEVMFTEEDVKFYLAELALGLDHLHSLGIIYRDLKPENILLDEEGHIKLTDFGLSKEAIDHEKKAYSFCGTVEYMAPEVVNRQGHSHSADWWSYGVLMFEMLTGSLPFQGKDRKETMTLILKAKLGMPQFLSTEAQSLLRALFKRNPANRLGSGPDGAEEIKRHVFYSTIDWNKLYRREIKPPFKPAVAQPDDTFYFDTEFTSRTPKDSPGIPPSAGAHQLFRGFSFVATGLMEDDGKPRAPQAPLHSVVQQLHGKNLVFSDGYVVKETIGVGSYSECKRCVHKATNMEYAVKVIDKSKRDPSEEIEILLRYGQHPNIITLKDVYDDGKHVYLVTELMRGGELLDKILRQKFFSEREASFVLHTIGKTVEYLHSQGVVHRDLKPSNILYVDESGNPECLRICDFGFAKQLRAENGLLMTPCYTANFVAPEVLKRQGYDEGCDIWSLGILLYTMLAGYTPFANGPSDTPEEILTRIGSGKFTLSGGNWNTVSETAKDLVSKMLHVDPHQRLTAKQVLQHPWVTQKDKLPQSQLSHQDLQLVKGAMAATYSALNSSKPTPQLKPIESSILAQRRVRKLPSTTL

As to `Cc1ncc(-c2nc(Nc3ccc(C(=O)NCCN4CCCCC4)cc3)ncc2F)n1C(C)C` [Compound 3], the inhibition at 10 µM against INSRR (IRR) stood at 105%; against EGFR (ErbB1), 13%; on STK3 (MST2) it was 79%; against PRKCD (PKC delta) it was 97%; against INSR it was 69%; at IKBKE (IKK epsilon), 33%. Further, the inhibition at 10 µM was 28% against CSNK1A1 (CK1 alpha 1); 82% on RPS6KA6 (RSK4); 94% at LCK; 100% at PHKG1; 52% against MAPKAPK2; 94% against PTK2 (FAK). The inhibition at 10 µM amounted to 69% against RPS6KA1 (RSK1) and 0.689% against ADRBK2 (GRK3).
With `Cc1cc(Nc2nc(N)nn2C(=O)NC(C)C)ccc1Cl` [Compound 5], the inhibition at 10 µM at INSRR (IRR) is 5.63%; against EGFR (ErbB1) it was 1%; on STK3 (MST2), 53%; on PRKCD (PKC delta), 1.15%; against INSR, 5.44%; at IKBKE (IKK epsilon), 9%. Besides, the inhibition at 10 µM was 4% at CSNK1A1 (CK1 alpha 1); 58% at RPS6KA6 (RSK4); 29% on LCK; -5.38% at PHKG1; 6.56% at MAPKAPK2; 10% on PTK2 (FAK). The inhibition at 10 µM at RPS6KA1 (RSK1) was 36%; against ADRBK2 (GRK3), -7%.
Turning to “XMD8-92 [Compound 2, reference compound]”, the “INSRR (IRR) % Inhibition” value at INSRR (IRR) (10 µM compound, ATP Km app) is recorded as 21%. Also, the “EGFR (ErbB1) % Inhibition” value on EGFR (ErbB1) (10 µM compound, ATP Km app) is -11%. Further, the “STK3 (MST2) % Inhibition” value at STK3 (MST2) (10 µM compound, ATP Km app) is -12%. The “PRKCD (PKC delta) % Inhibition” value on PRKCD (PKC delta) (10 µM compound, ATP Km app) was -3.55%. Also, at INSR (10 µM compound, ATP Km app), the “INSR % Inhibition” value came out at 4%. Also, at IKBKE (IKK epsilon) (10 µM compound, ATP Km app), the “IKBKE (IKK epsilon) % Inhibition” value amounted to 4.66%. The “CSNK1A1 (CK1 alpha 1) % Inhibition” value on CSNK1A1 (CK1 alpha 1) (10 µM compound, ATP Km app) is on record as 7%. Further, the “RPS6KA6 (RSK4) % Inhibition” value at RPS6KA6 (RSK4) (10 µM compound, ATP Km app) is 72%. At LCK (10 µM compound, ATP Km app), the “LCK % Inhibition” value is recorded as 15%. Further, the “PHKG1 % Inhibition” value on PHKG1 (10 µM compound, ATP Km app) is given as 12%. Moreover, the “MAPKAPK2 % Inhibition” value on MAPKAPK2 (10 µM compound, ATP Km app) turned out to be 93%. Moreover, on PTK2 (FAK) (10 µM compound, ATP Km app), the “PTK2 (FAK) % Inhibition” value is reported as 47%. On RPS6KA1 (RSK1) (10 µM compound, ATP Km app), the “RPS6KA1 (RSK1) % Inhibition” value is listed as 5.45%. For the same compound, the “ADRBK2 (GRK3) % Inhibition” value on ADRBK2 (GRK3) (10 µM compound, ATP Km app) is listed as -7%.

Values taken from article PMC4854315, “Discovery of a novel allosteric inhibitor-binding site in ERK5: comparison with the canonical kinase hinge ATP-binding site” (Acta Crystallographica. Section D, Structural Biology, 2016).
